Values after ≈ are worked out from the molar mass of the structure shown.
What was measured:
[1] = Hygroscopicity measurement (weight gain); format: physicochemical; details: 25±1° C., relative humidity 80±2%, 24 hours
Method: The method for measuring the hygroscopicity may include: placing a certain amount of a sample to be tested into a precisely weighed glass weighing bottle (m1) with a plug and precisely weighing (m2); placing the opened weighing bottle into a thermostatic dryer (with saturated ammonium sulfate solution placed at the bottom, with a relative humidity of 80±2%) at 25±1° C. for 24 hours; covering the weighing bottle with the plug and precisely weighing (m3), and calculating the percent of weight gain of the sample to be tested according to the following equation: […]
The measurement method includes: placing a certain amount of sample to be tested into a precisely weighed glass weighing bottle (m1) with a plug and precisely weighing (m2); placing the opened weighing bottle in a thermostated dryer (with saturated ammonium sulfate solution placed at the bottom, with a relative humidity of 80±2%) at 25±1° C. for 24 hours; covering the weighing bottle with the plug and precisely weighing (m3).
Characterization of the hygroscopicity and definition of the hygroscopic weight gain:
Deliquescence: sufficient moisture was absorbed to form liquid;
Slight hygroscopicity: hygroscopic weight gain was less than 2% and not less than 0.2%: […]

[2] = Solubility in water by HPLC; format: physicochemical; details: thermodynamic from solid; purified water, 25° C.
Method: Liquid chromatograph: Agilent 1200 HPLC system (diode array detector), ChemStation
Mobile phase: acetonitrile/water
Detection wavelength: 264 nm
About 100 mg sample to be tested was precisely weighed and placed into a 100 ml graduated flask at 25° C.; an appropriate amount of solvent [acetonitrile/water (80:20)] was added to dissolve the sample under ultrasonic sound, and the solution was diluted to a given scale and shaken up; 10 μl resulting solution was precisely measured and loaded into the liquid chromatograph, the chromatogram was recorded, and the peak area Scontrol was measured.
10 ml purified water was measured and placed into a 25 ml Kjeldahl flask. The sample to be tested was gradually added at 25° C. until an insoluble solid appeared in the solution. The solution was treated under ultrasonic sound for 30 min and the insoluble solid was filtered off. 10 μl filtrate was precisely weighed and loaded into the liquid chromatograph, the chromatogram was recorded, and the peak area Stest was measured.

[3] = Plasma exposure (AUC) in rats after gavage administration; format: in vivo; details: rat, po, male SD rats, 10 mg/kg (based on pharmaceutically active compound), salts dissolved in pure water, active compound as suspension in 0.5% CMC, up to 24 h
Method: Laboratory animal: male SD rats
Dosage: 10 mg/kg (based on pharmaceutically active compound)
Formulation for salts: dissolving in pure water
(§1) Formulation for pharmaceutically active compound: suspension in CMC (carboxymethylcellulose), 0.5%
Animal Grouping and Testing Course:
Each group includes three male rats having a weight of 180 to 210 g. Gavage administration was performed; the blood was collected at point of time: 5 min, 15 min, 30 min, 45 min, 1 h, 2 h, 4 h, 6 h, 10 h and 24 h; about 250 μl blood was collected from orbital venous plexus into a heparin-containing tube, centrifuged, and 100 μl plasma was used for LC-MS analysis.

[4] = test system: human colon cancer HT-29 xenografts; experiment: Therapeutic effect on human colon cancer HT-29 xenografts in nude mice; format: in vivo, BALB/cA-nude mice; details: 40 mg/kg (based on pharmaceutically active compound), gavage for 21 days, L-malate in pure water, active compound as suspension in 0.5% CMC
Method: Laboratory animal: BALB/cA-nude mice, 6-7 weeks, ♀
Dosage: 40 mg/kg (based on pharmaceutically active compound)
Formulation for L-malate: dissolving in pure water
as §1
Nude mice were subcutaneously inoculated with human colon cancer HT-29 cells. After the tumor grew to a size of 150 to 250 mm^3, the animals were randomly divided into three groups (d0). The animals were continuously administered through gavage for 21 days, and the tumor volume was measured 2 to 3 times per week. The tumor volume (V) was calculated according to the equation: V=1/2×a×b^2, where a and b represent length and width respectively.
The relative proliferation of tumor=T/C(%)=(T−T0)/(C−C0)×100, where T and C are the tumor volumes at the end of experiment, T0 and C0 are the tumor volumes at the start of experiment; the tumor inhibition rate=1−T/C(%).

CCN(CC)CCNC(=O)c1c(C)[nH]c2c1CCC/C2=C1/C(=O)Nc2ccc(F)cc21 [Pharmaceutically active compound, (Z)—N-[2-(diethylamino)ethyl]-2-methyl-7-(1,2-dihydro-5-fluoro-2-oxo-3H-indol-3-ylidene)-4,5,6,7-tetrahydro-1H-indol-3-carboxamide]
Hygroscopicity [1]: Almost no hygroscopicity | solubility at 30 min [2]: 20 µg/mL (≈ 47.1 µM) | AUC(0-t) [3]: 128 ng·h/mL | Tumor Inhibition Rate [4]: 40%
